Assay results: patent US12492192B2, “Crystalline form of lifitegrast, and pharmaceutical composition comprising the same” (YS LIFE SCIENCE CO. LTD., priority 2020, dated 2025)
Values after ≈ are worked out from the molar mass of the structure shown. “Also recorded” adds a separate entry of the source.

Legend:
Type in all cases: physicochemical
Solubility test in water = details: for Solubility in water: stirred at room temperature; for Solubility compared with that of crystalline form A: room temperature, relative to crystalline form A
Description: After crystalline forms Y and S of lifitegrast obtained from the Examples and crystalline form A of lifitegrast obtained from the Comparative Example were dissolved in water, respectively, they were sufficiently stirred at room temperature to perform a solubility test.

[1] = Hygroscopicity test (DVS); details: for Moisture Absorption at 25° C./80% RH: DVS, isothermal 25° C.; for Hygroscopicity (DVS analysis, in words): 25° C., relative humidity 5-95%, EP standard 25° C., 80% RH
Description: Using a DVS (dynamic vapor absorption, VTI SGA-100, TA Instruments) which is a vapor adsorption and desorption device, crystalline forms Y and S of lifitegrast obtained from the Examples and crystalline form A of lifitegrast obtained from the Comparative Example were subjected to moisture adsorption and desorption once repeatedly, respectively, at an isothermal condition of 25° C. and in a relative humidity range of 5-95% with an interval of 5% RH.

[2] = Thermal stability test (XRPD and HPLC after storage); details: 40° C./75% RH, 4 weeks, brown vial in aluminum pouch
Description: 50 mg of crystalline form Y and 50 mg of crystalline form S obtained from the Examples were put into brown vials, respectively, and secondary packaging was carried out in an aluminum pouch, followed by storing at 40±2° C. and 75±5% RH. After 4 weeks, each sample was taken out, X-ray powder diffraction (XRPD) analysis was performed to evaluate the stability of the crystalline form, and high performance liquid chromatography (HPLC) analysis was performed to evaluate the generation and increase of related substances.
The results of the X-ray powder diffraction (XRPD) analysis and high performance liquid chromatography (HPLC) analysis are shown in Table 5 and 6, respectively.

| Solubility in water (Solubility test in water) [µg/mL] | Moisture Absorption at 25° C./80% RH [1] [%] | Solubility compared with that of crystalline form A (Solubility test in water) | SMILES | Generation and increase of related substances (HPLC analysis) [2] | Stability of the crystalline form (XRPD analysis) [2] | Hygroscopicity (DVS analysis, in words) [1] |
| --- | --- | --- | --- | --- | --- | --- |
| 32 (≈ 52 µM) | 1.0 | – | CS(=O)(=O)c1cccc(C[C@H](NC(=O)c2c(Cl)cc3c(c2Cl)CCN(C(=O)c2ccc4ccoc4c2)C3)C(=O)O)c1 [Crystalline Form A, lifitegrast] | – | – | – |
| 64 (≈ 104 µM) | 0.1 | twice or more | CS(=O)(=O)c1cccc(C[C@H](NC(=O)c2c(Cl)cc3c(c2Cl)CCN(C(=O)c2ccc4ccoc4c2)C3)C(=O)O)c1 [Crystalline Form S, lifitegrast] | no related substance was observed; also recorded: No generation of Related | did not change in appearance and polymorphism; also recorded: Retention of Crystalline Form | low hygroscopicity; also recorded: lower hygroscopicity than the crystalline form A |
| 67 (≈ 109 µM) | 2.9 | twice or more | CS(=O)(=O)c1cccc(C[C@H](NC(=O)c2c(Cl)cc3c(c2Cl)CCN(C(=O)c2ccc4ccoc4c2)C3)C(=O)O)c1 [Crystalline Form Y, lifitegrast] | no related substance was observed; also recorded: No generation of Related | did not change in appearance and polymorphism; also recorded: Retention of Crystalline Form | low hygroscopicity |
